# Ends that are not written are not given here.
# Tests used:
# [1] = system: HUVEC; assay: Scratch wound assay (HUVEC migration); format: cell-based, human; conditions: stimulated with 50 ng/ml rhVEGF, 16 h
# Experimental: Scratch Wound Assay. HUVEC were cultured on 0.1% gelatin coated 24-well plates. Confluent cells were incubated overnight with starving media, then they were scraped using sterilized 200-μl pipette tips and stimulated with 50 ng/ml of rhVEGF with or without VEGF mimic peptides for 16 h at 37° C. Cells were fixed and images were captured immediately at 40× magnification from light microscopy and cells that migrated to the scraped area were counted using imageJ software.
# VEGF mimic peptides inhibit cell migration in a Scratch Wound Assay. New blood vessel formation requires that the endothelial cells migrate towards the sources of growth factor. […] We used the scratch wound assay with HUVEC to observe the ability of the VEGF mimic peptides in inhibiting endothelial cell migration. […] Growth conditions (medium supplemented with 20% FBS and endothelial cell growth supplements).
# [2] = target: T1, extracellular domain of VEGFR-2 (KDR-Fc) (Homo sapiens, UniProt P35968); assay: Surface plasmon resonance (BIAcore 3000): KDR-Fc injected over immobilized VEGF mimic peptides; conditions: peptide immobilized on CM5 chip, 1:1 (Langmuir) model, read-out: equilibrium binding constant (KD), binding affinity
# T1 construct: the extracellular domain of VEGFR-2(KDR-Fc) was injected as ligand; Fc; purchased R&D System
# T1 sequence (P35968 20-764 limits assumed): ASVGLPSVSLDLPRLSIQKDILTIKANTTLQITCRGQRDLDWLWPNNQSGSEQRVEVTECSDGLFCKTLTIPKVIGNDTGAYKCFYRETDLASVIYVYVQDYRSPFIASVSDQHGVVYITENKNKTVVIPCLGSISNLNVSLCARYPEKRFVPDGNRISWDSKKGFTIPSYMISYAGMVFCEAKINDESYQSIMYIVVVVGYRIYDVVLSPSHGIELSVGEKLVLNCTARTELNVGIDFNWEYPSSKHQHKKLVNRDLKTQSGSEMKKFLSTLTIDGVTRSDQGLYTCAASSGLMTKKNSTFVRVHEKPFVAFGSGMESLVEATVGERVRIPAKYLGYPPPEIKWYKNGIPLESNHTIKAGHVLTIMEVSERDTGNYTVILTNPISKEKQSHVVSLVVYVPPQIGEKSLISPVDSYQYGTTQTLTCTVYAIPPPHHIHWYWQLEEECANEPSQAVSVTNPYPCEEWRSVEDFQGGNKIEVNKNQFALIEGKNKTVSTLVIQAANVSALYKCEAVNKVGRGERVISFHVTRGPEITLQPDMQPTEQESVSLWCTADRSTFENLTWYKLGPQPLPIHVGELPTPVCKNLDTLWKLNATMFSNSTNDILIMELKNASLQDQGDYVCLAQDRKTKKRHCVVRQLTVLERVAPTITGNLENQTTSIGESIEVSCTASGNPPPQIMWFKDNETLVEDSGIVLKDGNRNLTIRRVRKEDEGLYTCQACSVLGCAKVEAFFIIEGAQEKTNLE
# Experimental: Surface Plasma Resonance. Binding assays were performed using a Biacore 3000 instrument (Pharmacia Bio-sensor, Uppsala, Sweden). The experiments were performed at room temperature using HBS-EP buffer (25 mM HEPES, pH 7.4, […], 3.4 mM EDTA, and 0.005% surfactant P20). Peptides were coupled onto CM5 chip surfaces at 10 μL/min using a standard amine coupling protocol with EDC (N-ethyl-N′-[dimethylaminopropyl]carbodiimide)/NHS (N-hydroxysuccinimide). KDR-Fc (R&D System) at several concentrations in HBS-EP buffer. Was injected at a flow rate of 10 μL/min. Data analysis was performed with BIAsimulation software version 3.1 (Pharmacia Biosensor). […] To obtain measurement of anti-peptides binding affinities similar a experiment was carried out, but rhVEGF was immobilized onto CM5 chip surface and anti-peptides were injected at several concentrations.
# Conformational VEGF mimic peptide binds to VEGFR-2. Binding assay was carried out using BIAcore 3000 instrument. Designed VEGF mimic peptide VEGF-P3 (NC) and (CYC) were immobilized onto chip CM5 and the extracellular domain of VEGFR-2(KDR-Fc) was injected as ligand. […] Global analysis was performed with data points fitting to a simple 1:1 (Langmuir) binding model. The equilibrium binding constant (KD) takes Ka and Kd values in consideration and represents the binding affinity. […]
# [3] = target: T2, VEGFR-2 (Homo sapiens, UniProt P35968); assay: VEGFR-2 phosphorylation in 293/KDR cells, quantified with Human Phospho-VEGF R2/KDR DuoSet IC kit; format: cell-based; conditions: 293/KDR cells stimulated with rhVEGF; control (only rhVEGF) taken as 100%
# T2 construct: host or cells: 293/KDR cells
# T2 sequence (P35968 20-1356): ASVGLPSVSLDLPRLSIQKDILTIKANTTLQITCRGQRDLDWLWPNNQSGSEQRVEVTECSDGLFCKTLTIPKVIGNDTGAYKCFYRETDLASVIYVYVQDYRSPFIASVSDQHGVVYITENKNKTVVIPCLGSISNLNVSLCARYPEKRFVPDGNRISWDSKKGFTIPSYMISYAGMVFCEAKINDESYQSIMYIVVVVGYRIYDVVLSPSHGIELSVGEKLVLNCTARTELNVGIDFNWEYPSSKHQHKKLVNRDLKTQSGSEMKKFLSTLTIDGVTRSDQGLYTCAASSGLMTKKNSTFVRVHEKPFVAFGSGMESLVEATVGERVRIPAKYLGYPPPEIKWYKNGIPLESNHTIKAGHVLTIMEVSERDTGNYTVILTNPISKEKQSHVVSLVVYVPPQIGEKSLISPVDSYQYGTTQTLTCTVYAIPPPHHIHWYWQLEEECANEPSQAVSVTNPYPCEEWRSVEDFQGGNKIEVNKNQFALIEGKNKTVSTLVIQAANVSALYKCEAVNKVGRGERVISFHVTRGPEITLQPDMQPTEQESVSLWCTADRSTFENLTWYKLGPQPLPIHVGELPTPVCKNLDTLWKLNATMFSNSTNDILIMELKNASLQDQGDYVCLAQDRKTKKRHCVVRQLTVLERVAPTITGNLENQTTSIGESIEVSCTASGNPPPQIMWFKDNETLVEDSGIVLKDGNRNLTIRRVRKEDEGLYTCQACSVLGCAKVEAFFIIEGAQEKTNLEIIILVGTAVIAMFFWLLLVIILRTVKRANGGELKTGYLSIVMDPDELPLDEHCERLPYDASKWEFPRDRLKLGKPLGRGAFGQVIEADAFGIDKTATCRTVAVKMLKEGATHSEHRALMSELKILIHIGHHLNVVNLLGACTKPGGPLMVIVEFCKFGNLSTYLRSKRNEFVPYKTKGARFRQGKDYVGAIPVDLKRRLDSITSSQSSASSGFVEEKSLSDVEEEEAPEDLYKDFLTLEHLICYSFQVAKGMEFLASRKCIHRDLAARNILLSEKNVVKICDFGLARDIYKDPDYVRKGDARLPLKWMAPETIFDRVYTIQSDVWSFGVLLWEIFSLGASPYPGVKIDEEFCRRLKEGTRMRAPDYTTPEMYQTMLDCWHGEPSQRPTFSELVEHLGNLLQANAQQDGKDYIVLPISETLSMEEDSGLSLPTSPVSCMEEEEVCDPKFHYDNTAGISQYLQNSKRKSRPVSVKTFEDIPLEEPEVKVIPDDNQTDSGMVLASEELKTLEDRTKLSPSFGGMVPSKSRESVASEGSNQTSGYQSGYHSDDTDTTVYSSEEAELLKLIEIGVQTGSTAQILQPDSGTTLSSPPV
# Experimental: 293/KDR cells (5×10^5 cells/well) were seeded on 6-well plates in DMEM medium supplemented with 10% FBS. After overnight incubation in starving medium (no FBS) cells were stimulated with rhVEGF for 5 min. Cells were washed in cold PBS supplemented with 1 mM sodium orthovanadate and harvested into RIPA lysis buffer (Santa Cruz Biotechnology, Santa Cruz, Calif.) and incubated on ice for 30 min and cell lysate was collected after centrifugation at 13000 rpm for 10 min. Cell lysate was kept at −80° C. until used for Western blotting detecting phosphoro-KDR and total KDR as described above.
# Conformational VEGF mimic peptide prevents VEGFR-2 phosphorylation. VEGFR-2 (also known as […] or KDR) has been characterized as a tyrosine receptor type III. VEGFR-2 activation is promoted by dimerization upon VEGF binding. VEGFR-2 contains several tyrosine residues that can be phosphorylated, triggering several pathways such as proliferation, migration and survival in the endothelial cells. […] All three VEGF mimic peptides were able to decrease the level of receptor phosphorylation (FIG. 5); however, the inhibitory effect was unable to be quantified, due to the limited detection of VEGFR-2 in the Western blotting. […] The percentage of inhibition was calculated assuming the phosphorylation level of control (only rhVEGF) was 100% and the results are represented in FIG. 6B.
# [4] = target: T3, HER-2 (Homo sapiens, UniProt P04626); assay: HER-2 phosphorylation assay in BT-474 cells, peptides (Duoset IC human phospho-ErbB2); format: cell-based; conditions: peptides then HRG 10 min
# T3 construct: The human breast tumor cell lines BT-474 were purchased from American Type Culture Collection; host or cells: BT-474
# Experimental: Phosphorylation assay. 1×10^6 BT-474 cells were plated in each well of a six well plate and incubated overnight at 37° C. Culture medium was removed and the cell layer washed once with PBS low score (1% FCS). Culture medium was added to the wells and plates incubated overnight. Cells were washed and 50 ug of peptides, anti-peptide Abs and controls in binding buffer (0.2% w/v BSA, RPMI 1640 medium with 10 mM HEPES (pH 7.2) was added to the wells and incubated at room temperature for 1 h. HRG (5 nM/well) was added and the incubation continued for 10 min. Binding buffer was removed and the cell layer washed once with PBS before adding 1 ml of RIPA lysis buffer (Santa Cruz Biotechnology, Santa Cruz, Calif.). Plates were rocked at 4° C. for 2 h. Lysates were removed, spun at 13000×g and supernatants collected. Protein concentration of each sample was measured by Coomassie plus protein assay reagent kit and lysates were stored at −80° C. Phosphorylation was determined by Duoset IC for human phosphor-ErbB2 according to the manufacturer's directions (RSD Systems).
# Peptide inhibition of Phosphorylation. The main mode of action of Pertuzumab is to inhibit phosphorylation. This is due to the fact that it sterically blocks the dimerization domain of HER-2 thereby preventing the formation of dimers with other HER receptors and thus interrupting downstream signaling. […]
# [5] = system: TS/A cells (HER-2 negative); assay: Proliferation assay (MTT) of TS/A cells in presence of HRG; format: cell-based, mouse; conditions: HER-2 negative cell line
# Experimental: Proliferation assay. BT-474, SK-BR-3, MDA-468 and TS/A cells (1×10^4 were plated in 96-well flat-bottom plates overnight. Growth medium was replaced with low sera (1% FCS) medium and the cells were incubated overnight. Media were removed from the wells and replaced with low sera medium containing HER-2 and VEGF mimic peptides at concentrations ranging from 25-150 ug/ml and plates were incubated an additional 1 h at 37° C. before adding 10 ng/ml HRG in 1% medium. Plates were incubated for an additional 72 h at 37° C. before adding MTT (5 mg/ml) to each well. Plates were incubated 2 h at 37° C., and 1000 of extraction buffer (20% SDS, 50% dimethylformamide (pH 4.7)) was added to each well. Plates incubated overnight at 37° C. and read on an ELISA reader at 570 nm with 655 nm background subtraction Inhibition percentage was calculated as 100%×(Untreated cells-Peptide treated cells)/(Untreated cells).
# Antiproliferative effects of peptides. The antiproliferative effects of the peptides were tested using four different cell lines (Bt-474 and SK-BR-3: HER-2^high, MDA-468: HER-2^low and TS/A: HER-2^negative) (FIGS. 13A-13D) in the presence of HRG to activate the HER-3 receptor. […] The cells were incubated with the peptides before being exposed to HRG.
# [6] = Active immunization of rabbits, antibody titers by ELISA; format: in vivo, rabbit; conditions: outbred rabbits, MVF chimeric peptide
# Experimental: Active immunization and Ab purification. Mice and rabbits were immunized subcutaneously at multiple sites with a total of 1 mg (rabbits) or 100 μg (mice) of peptide dissolved in ddH2O emulsified (1:1) in Montanide ISA720 vehicle (Seppic) with 100 μg of N-acetylglucosamine-3-yl-acetyl-1-alanyl-d-isoglutamine (nor-MDP). Balb/c mice. Rabbits and mice were boosted with the respective doses at 3 week intervals. Rabbit blood was collected via the central auricular artery and sera tested for antibody titers. Anti-peptide antibodies were purified by affinity chromatography using a Protein A/G column (Pierce) from high titer antibody sera.
# ELISA. Antibody titers were determined as previously described and it is defined as the reciprocal of the highest serum dilution with an absorbance of 0.2 or greater after subtracting the background.
# Antigenicity and Immunogenicity of Peptides. Earlier studies in our lab have shown that the MVF-HER-2-266 was highly immunogenic in both rabbits and mice. […] We had to do up to six immunizations with the D-amino acid peptide before we could obtain higher abs titers while with the L-amino acids only four immunization are enough to produce higher titers. We therefore used the abs raised against these peptides to test their effects on cancer cells in vitro.
molecule,measurement,setting,value
CC(C)c1cc(/C=C(\C#N)C(=O)NCCCc2ccccc2)cc(C(C)C)c1O [SU1498],inhibition of HUVEC migration,[1],approximately 50%
ITMQIMRIKPHQGQHIGEMSF [VEGF 102-122],Kd,[2],45 nM
same,inhibition of VEGFR-2 phosphorylation,[3],4%
LHCPALVTYNTDTFESMPNPEGRYTFGASCV [HER-2-266-296],inhibition rate of HER-2 phosphorylation,[4],38%
same,antiproliferative effect on TS/A cells,[5],inhibitory effects
NH2-D[FSMECIMIKPHQGQHIGCQMTI]-COOH [VEGF-P4-CYC],inhibition rate of HER-2 phosphorylation,[4],39%
same,immunogenicity (antibody titers),[6],immunogenic

# — patent US9504738B2, “Immunogenic epitopes, peptidomimetics, and anti-peptide antibodies, and methods of their use” (Ohio State Innovation Foundation, priority 2010, dated 2016)
